Tests used:
P388 = assay: Cytotoxic concentration against murine P388 leukemia cell line growth determined by microculture tetrazolium-formazan method; format: functional, cell-based; conditions: Mus musculus
A549 = assay: Cytotoxic concentration against human A549 lung cancer cell line determined by sulforhodamine B dye-staining method; format: functional, cell-based
Nucleic Acid = assay: Scatchard binding constant towards calf thymus DNA; format: functional; conditions: Bos taurus

Compound | IC50 (P388) [nM] | IC50 (A549) [nM] | Binding constant (Nucleic Acid) [M⁻¹]
CN(C)CCN1C(=O)c2cccc3cc(N)cc(c23)C1=O [AMONAFIDE] | 200 | – | –
CCN(CC)CCN1C(=O)c2cccc3c2c(cc2nc(C)sc23)C1=O | 640 | 158 | 166000
Cc1nc2cc3c4c(cccc4c2s1)C(=O)N(CCN1CCNCC1)C3=O | 1130 | 20.8 | 226000
Cc1nc2cc3c4c(cccc4c2s1)C(=O)N(CCCN(C)C)C3=O | 1700 | 1800 | 666000
Cc1nc2cc3c4c(cccc4c2s1)C(=O)N(CCN(C)C)C3=O | 31 | 82.8 | 231000

Source: ChEMBL document CHEMBL1139635, “Synthesis, antitumor evaluation and DNA photocleaving activity of novel methylthiazonaphthalimides with aminoalkyl side chains” (Bioorg Med Chem Lett, 2005)
